The target of this test is Mcl-1 protein (UniProtKB Q07820) (Homo sapiens (Human), UniProt Q07820). Put plainly: Inhibition of Mcl-1 by the fluorescence polarisation assay (Example A, Method A). It counts as binding. The following applies: fluorescence polarization assay. In short, it runs like this: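 Protein (5 nM) and fluorescein-tagged peptide tracer (1 nM) incubated with 11-point compound series for 2 h at room temperature in HEPES/NaCl/Tween 20 buffer, pH 7.4, 5% DMSO. Displacement read as decrease in polarisation; IC50 fitted by 4-parameter logistic, converted to Ki (cKi or eKi).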
Mcl-1 protein, sequence (Q07820 whole entry): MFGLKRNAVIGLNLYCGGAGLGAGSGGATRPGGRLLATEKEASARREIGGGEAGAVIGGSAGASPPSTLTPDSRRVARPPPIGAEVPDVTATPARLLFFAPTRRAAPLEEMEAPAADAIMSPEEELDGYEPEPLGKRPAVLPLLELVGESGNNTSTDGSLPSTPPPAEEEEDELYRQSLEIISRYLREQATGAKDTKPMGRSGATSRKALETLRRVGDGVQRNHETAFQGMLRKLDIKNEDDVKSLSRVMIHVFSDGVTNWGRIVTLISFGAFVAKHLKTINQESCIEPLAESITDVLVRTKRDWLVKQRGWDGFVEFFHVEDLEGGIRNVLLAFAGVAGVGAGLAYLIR
(In general: Polarisation of emitted light reports the rotation of a fluorescent probe.)
Turning to `O=C(O)[C@]1(Nc2cccc(Cl)c2)CC[C@@]2(CC1)c1ccccc1CC2CCCOC1CCOCC1` (some centres unmarked) [Example 467, (1r,4r)-4-(3-chloroanilino)-2′-{3-[(oxan-4-yl)oxy]propyl}-2′,3′-dihydrospiro[cyclohexane-1,1′-indene]-4-carboxylic acid], the Ki (as a rule, the equilibrium dissociation constant of an inhibitor or competing ligand from its target) was 746 nM.
As for `O=C(O)[C@]1(Nc2cccc(Br)c2)CC[C@@]2(CC1)c1ccccc1CC2CCc1ccccn1` (some centres unmarked) [Example 175, (1r,4r)-4-(3-bromoanilino)-2′-[2-(pyridin-2-yl)ethyl]-2′,3′-dihydrospiro[cyclohexane-1,1′-indene]-4-carboxylic acid], the figure is 1540 nM; as for `O=C(O)C1(Nc2cccc(Br)c2)CCC2(CC1)c1ccccc1-c1ccccc12` [Example 117, 4-[(3-bromophenyl)amino]spiro[cyclohexane-1,9′-fluorene]-4-carboxylic acid], 5760 nM; as for `O=C(O)[C@]1(Nc2cccc(Cl)c2)CC[C@@]2(CC1)c1ccccc1CC2c1ccc(Oc2ccncc2)cc1` (single isomer, unassigned) [Example 365, (1r,4r)-4-(3-chloroanilino)-2′-{4-[(pyridin-4-yl)oxy]phenyl}-2′,3′-dihydrospiro[cyclohexane-1,1′-indene]-4-carboxylic acid], 3090 nM.
To `CN1c2ccc(Br)cc2[C@]2(CC[C@](Nc3cccc(Br)c3)(C(=O)O)CC2)C1=O` [Example 6, (1r,4r)-5′-bromo-4-(3-bromoanilino)-1′-methyl-2′-oxo-1′,2′-dihydrospiro[cyclohexane-1,3′-indole]-4-carboxylic acid] belongs 9910 nM; to `O=C(O)[C@]1(Nc2cccc(Cl)c2)CC[C@]2(CC1)C(COCCc1ccccc1Cl)=Cc1ccccc12` [Example 419, (1s,4s)-4-(3-chloroanilino)-2′-{[2-(2-chlorophenyl)ethoxy]methyl}spiro[cyclohexane-1,1′-indene]-4-carboxylic acid], 300 nM.
As for `O=C(O)[C@]1(Nc2cccc(Cl)c2)CC[C@]2(CC1)C(c1cccc(OCc3ccccc3)c1)=Cc1ccccc12` [Example 302, (1s,4s)-2′-[3-(benzyloxy)phenyl]-4-(3-chloroanilino)spiro[cyclohexane-1,1′-indene]-4-carboxylic acid], the figure is 1510 nM; as for `COCCCC1Cc2ccccc2[C@]12CC[C@@](Nc1cccc(Cl)c1)(C(=O)O)CC2` (some centres unmarked) [Example 197, (1r,4r)-4-(3-chloroanilino)-2′-(3-methoxypropyl)-2′,3′-dihydrospiro[cyclohexane-1,1′-indene]-4-carboxylic acid], 1380 nM.
Regarding `COc1cccc(C2Cc3ccccc3[C@]23CC[C@@](Nc2cccc(Cl)c2)(C(=O)O)CC3)c1Cl` (single isomer, unassigned) [Example 291, (1r,4r)-4-(3-chloroanilino)-2′-(2-chloro-3-methoxyphenyl)-2′,3′-dihydrospiro[cyclohexane-1,1′-indene]-4-carboxylic acid], the Ki is 2540 nM.
To `O=C(O)[C@]1(Nc2cccc(Cl)c2)CC[C@@]2(CC1)c1ccccc1C[C@@H]2c1ccc(Oc2ccccc2)cc1` [Example 359, (1r,2′R,4R)-4-(3-chloroanilino)-2′-(4-phenoxyphenyl)-2′,3′-dihydrospiro[cyclohexane-1,1′-indene]-4-carboxylic acid] belongs 2140 nM; to `COc1cccc(C2=Cc3ccccc3[C@]23CC[C@@](Nc2cccc(Cl)c2)(C(=O)O)CC3)c1` [Example 253, (1s,4s)-4-(3-chloroanilino)-2′-(3-methoxyphenyl)spiro[cyclohexane-1,1′-indene]-4-carboxylic acid], 836 nM.
To `O=C(O)[C@]1(Nc2cccc(Cl)c2)CC[C@]2(CC1)C(CCCOc1ccccc1)=Cc1ccccc12` [Example 422, (1r,4r)-4-(3-chloroanilino)-2′-(3-phenoxypropyl)spiro[cyclohexane-1,1′-indene]-4-carboxylic acid] belongs 95.9 nM; to `COc1cccc(C2Cc3ccccc3[C@]23CC[C@@](Nc2cccc(Cl)c2)(C(=O)O)CC3)c1` (single isomer, unassigned) [Example 273, (1r,4r)-4-(3-chloroanilino)-2′-(3-methoxyphenyl)-2′,3′-dihydrospiro[cyclohexane-1,1′-indene]-4-carboxylic acid], 1720 nM.
Take `O=C(O)[C@]1(Nc2cccc(Cl)c2)CC[C@@]2(CC1)c1ccccc1CC2[C@H]1C[C@@H]1COc1cccnc1` (single isomer, unassigned) [Example 114, (1r,4r)-4-(3-chloroanilino)-2′-[(1R*,2S*)-2-{[(pyridin-3-yl)oxy]methyl}cyclopropyl]-2′,3′-dihydrospiro[cyclohexane-1,1′-indene]-4-carboxylic acid]: the Ki stood at 27300 nM.
In the case of `CN1c2ccccc2[C@]2(CC[C@@](Nc3cccc(Br)c3)(C(=O)O)CC2)C1=O` [Example 17, (1s,4s)-4-(3-bromoanilino)-1′-methyl-2′-oxo-1′,2′-dihydrospiro[cyclohexane-1,3′-indole]-4-carboxylic acid], the Ki is 23100 nM.
Regarding `O=C(O)[C@]1(Nc2cccc(Cl)c2)CC[C@]2(CC1)C(c1coc3ccccc13)=Cc1ccccc12` [Example 245, (1s,4s)-2′-(1-benzofuran-3-yl)-4-(3-chloroanilino)spiro[cyclohexane-1,1′-indene]-4-carboxylic acid], the inhibition constant Ki is 4300 nM.
As for `C[C@@H](COc1ccnc(C(F)F)c1)C[C@H]1Cc2ccccc2[C@]12CC[C@@](Nc1cccc(Cl)c1)(C(=O)O)CC2` [Example 581, (1r,2′S,4S)-4-(3-chloroanilino)-2′-[(2R)-3-{[2-(difluoromethyl)pyridin-4-yl]oxy}-2-methylpropyl]-2′,3′-dihydrospiro[cyclohexane-1,1′-indene]-4-carboxylic acid], the figure is 47.5 nM; as for `O=C(O)[C@]1(Nc2cccc(Cl)c2)CC[C@@]2(CC1)c1ccccc1CC2c1cccc(OCc2ccncc2)c1` (single isomer, unassigned) [Example 373, (1r,4r)-4-(3-chloroanilino)-2′-{3-[(pyridin-4-yl)methoxy]phenyl}-2′,3′-dihydrospiro[cyclohexane-1,1′-indene]-4-carboxylic acid], 221 nM.
As for `O=C(O)[C@]1(Nc2cccc(Cl)c2)CC[C@@]2(CC1)c1ccccc1CC2[C@H]1C[C@@H]1COc1cccnc1` (single isomer, unassigned) [Example 113, (1r,4r)-4-(3-chloroanilino)-2′-[(1R*,2S*)-2-{[(pyridin-3-yl)oxy]methyl}cyclopropyl]-2′,3′-dihydrospiro[cyclohexane-1,1′-indene]-4-carboxylic acid], the figure is 22300 nM; as for `COc1cccc(C2Cc3ccccc3[C@]23CC[C@@](Nc2cccc(Cl)c2)(C(=O)O)CC3)c1C` (single isomer, unassigned) [Example 321, (1r,4r)-4-(3-chloroanilino)-2′-(3-methoxy-2-methylphenyl)-2′,3′-dihydrospiro[cyclohexane-1,1′-indene]-4-carboxylic acid], 2940 nM.
As to `CC1=Nc2ccc(Br)cc2[C@]12CC[C@](Nc1cccc(Br)c1)(C(=O)O)CC2` [Example 27, (1r,4r)-5′-bromo-4-(3-bromoanilino)-2′-methylspiro[cyclohexane-1,3′-indole]-4-carboxylic acid], the Ki is 36300 nM.
As for `COc1ccc(C2=Cc3ccccc3[C@]23CC[C@@](Nc2cccc(Cl)c2)(C(=O)O)CC3)cc1C` [Example 225, (1s,4s)-4-(3-chloroanilino)-2′-(4-methoxy-3-methylphenyl)spiro[cyclohexane-1,1′-indene]-4-carboxylic acid], the figure is 1020 nM.
To `C[C@H](COc1ccnc2ccsc12)CC1Cc2ccccc2[C@]12CC[C@@](Nc1cccc(Cl)c1)(C(=O)O)CC2` (stereo partly drawn) [Example 592, (1r,4S)-4-(3-chloroanilino)-2′-{(2S)-2-methyl-3-[(thieno[3,2-b]pyridin-7-yl)oxy]propyl}-2′,3′-dihydrospiro[cyclohexane-1,1′-indene]-4-carboxylic acid] belongs 710 nM.
As for `CN(Cc1ccccc1)C(=O)C1=Cc2ccccc2[C@]12CC[C@@](Nc1cccc(Cl)c1)(C(=O)O)CC2` [Example 181, (1s,4s)-2′-[benzyl(methyl)carbamoyl]-4-(3-chloroanilino)spiro[cyclohexane-1,1′-indene]-4-carboxylic acid], the figure is 11400 nM; as for `O=C(O)[C@]1(Nc2cccc(Cl)c2)CC[C@]2(CC1)C(C1CCC1)=Cc1ccccc12` [Example 96, (1r,4r)-4-(3-chloroanilino)-2′-cyclobutylspiro[cyclohexane-1,1′-indene]-4-carboxylic acid], 4500 nM.
Regarding `O=C(O)[C@]1(Nc2cccc(Cl)c2)CC[C@]2(CC1)C(Br)=Cc1cc(F)ccc12` [Example 138, (1s,4s)-2′-bromo-4-(3-chloroanilino)-5′-fluorospiro[cyclohexane-1,1′-indene]-4-carboxylic acid], the Ki came to 219 nM.
As for `O=C(O)[C@]1(Nc2cccc(Br)c2)CC[C@@]2(CC1)C(=O)Nc1ccccc12` [Example 1, (1r,4r)-4-(3-bromoanilino)-2′-oxo-1′,2′-dihydrospiro[cyclohexane-1,3′-indole]-4-carboxylic acid], the figure is 23300 nM; as for `Nc1cc(Cl)c(OCCCC2Cc3ccccc3[C@]23CC[C@@](Nc2cccc(Cl)c2)(C(=O)O)CC3)c(Cl)c1` (some centres unmarked) [Example 429, (1r,4r)-2′-[3-(4-amino-2,6-dichlorophenoxy)propyl]-4-(3-chloroanilino)-2′,3′-dihydrospiro[cyclohexane-1,1′-indene]-4-carboxylic acid], 165 nM; as for `O=C(O)[C@]1(Nc2cccc(Cl)c2)CC[C@]2(CC1)C(c1cccc(Cc3ccccc3)c1)=Cc1ccccc12` [Example 301, (1s,4s)-2′-(3-benzylphenyl)-4-(3-chloroanilino)spiro[cyclohexane-1,1′-indene]-4-carboxylic acid], 491 nM.

The record behind these values is patent publication US20240150293A1, “SPIROCYCLOHEXANE DERIVATIVES, PHARMACEUTICAL COMPOSITIONS CONTAINING THEM AND THEIR USES AS ANTI-APOPTOTIC INHIBITORS” (LES LABORATOIRES SERVIER, priority 2021, published 2024).
